Laboratory results taken from patent publication US20090215896A1, “REELIN DEFICIENCY OR DYSFUNCTION AND METHODS RELATED THERETO” (MARTEK BIOSCIENCES CORPORATION, priority 2004, published 2009).

System: Reelin-deficient mice (B6C3Fe a/a-Reln<rl>/J)
Assay: Reelin feeding study: number of offspring with reeler phenotype per diet group
Assay type: in vivo
Conditions: DHA to pregnant and lactating dam and to pups after weaning, vs DHA Deficient Diet; P=0.04
Text: In the following experiment, the inventors tested whether LC-PUFA dietary enrichment (DHA) for mice lacking one or more normal reelin genes will correct Reelin histopathology/symptoms and will normalize the fatty acid profiles observed in Reelin-deficient mice. Specifically, the inventors evaluated whether dietary enrichment of long-chain polyunsaturated fatty acids (DHA) will correct or modulate Reelin histopathology/symptoms in Reelin-deficient mice.
Materials and Methods: The Reelin feeding study was sponsored by Martek Biosciences Corporation and initiated at Jackson Labs, Bar Harbor, Me. (Stock used: 300235 B6C3Fe a/a-Reln/J). Heterozygous females were mated with heterozygous males and received one of two experimental diets: a DHA DEFICIENT DIET (0% DHA by weight; 0.14% alpha linolenic acid by weight), or a DHA ADEQUATE DIET (0.462% DHA by weight, with 0.115% alpha linolenic acid by weight). The females continued to receive the specific diet throughout pregnancy and lactation. Homozygous, heterozygous, and wild-type pups born to pregnant females were placed on the same specific maternal diet at weaning. The number of reeler mice was recorded within each diet group. […] Pups were sacrificed at between 8 and 14 weeks of age and tissues were collected for fatty acid analysis.

Structure (SMILES): CCC=CCC=CCC=CCC=CCC=CCC=CCCC(=O)O [DHA, 4,7,10,13,16,19-docosahexaenoic acid]
- reduction of the incidence of male reeler animals: ~3 fold
